Test results taken from patent US9326520B2, “Pest repellent comprising geranylacetone” (The University Court of the University of Aberdeen, priority 2006, dated 2016).
“And” between values parts separate entries of the source, which are not always exact repeats. Identical values can stand only once. “Also recorded” adds a separate entry of the source.

Tests used:
Culex quinquefasciatus = experiment: Laboratory-based repellency test, treated forearm in cage, protective efficacy (PE); type: in vivo; settings: for Mean % P.E ± S.E: landings over 3 min
Method: (§1) The mosquitoes were laboratory-reared using standard conditions at ICIPE, Duduville. 5-7 day old female mosquitoes that had been starved for 18 h but previously fed on 6% glucose solution were used. Eighteen cages (50×50×50 cm) were used with 25 female mosquitoes in each. Six human volunteers with no or little allergic reaction to bites were selected. Test solutions (0.5 ml in acetone) were applied to a volunteer's forearms and the hand was covered with a glove. Acetone alone (0.5 ml) served as a control on the other arm. The control arm was inserted into a cage and the number of landings were recorded over 3 min. The treated arm was then inserted as above. Repellency data was expressed as protective efficacy (PE) and was calculated by using the formula PE=(% control mean−% test mean/% control mean). The data were transformed and subjected to an ANOVA.
(§2) Each compound was tested at concentrations ranging from 0.0001% to 10%. […]

Anopheles gambiae = experiment: as above; type: in vivo; settings: An. gambiae, landings over 3 min
Method: as §1, §2

C. impunctatus midges = experiment: Field trial of repellency (WHO protocol), compounds on stockings worn on forearms of volunteers; type: in vivo, Culicoides impunctatus; settings: for repellency compared with DEET at 1%: over 1 min, single compounds at 1%
Method: FIG. 6. Repellency of EAG-active human-derived compounds applied to the forearms of volunteers and tested on Culicoides impuctatus midges in the field. a) over 1 minute and b) over 5 minutes.
A field trial was made in the Ormsary estate, Argyllshire, during the summer 2005 in a region with an extremely high natural population of C. impunctatus. […] Compounds were applied to (nylon) stockings and worn on the forearms of volunteers and were tested at three concentrations in ethanol (1%, 0.01% and 0.0001%). All compounds and mixtures were compared against the WHO approved repellent diethyltoluamide (DEET) (1% and 40%).

[1] = system: Aedes aegypti host-seeking female mosquitoes; experiment: Y-tube olfactometer: response of mosquitoes to hand of attractive volunteer with and without chemical; type: in vivo
From the text: FIG. 5. […] (−1=1×10^−1 g μL^−1; −2=1×10^−2 g μL^−1, etc). Back transformed means+95% confidence intervals (calculated for a binomial distribution) from the logistic scale are shown.
A convenient bioassay was established following work by Geier et al. (1999)^17 using a Y-tube olfactometer in which mosquitoes, Ae. aegypti, could “choose” between volatile skin emanations and air alone, the “choice” being expressed as flight activity or relative attraction. Initially, the source of skin emanations was from individual hands of a series of human volunteers.
These compounds (from Sigma Aldrich) were tested individually at different concentrations in the olfactometer against Ae. aegypti. The upwind flight activity, relative attraction and probing activity (feeding) of the mosquitoes to the hand of an attractive volunteer with and without the chemicals was recorded.

Ae. aegypti = settings: H. D. Douglas et al. J. Med. Entomol. 42(4): 647-651 (2005); cited from earlier work
[2] = hand of attractive volunteer with chemical vs without, data not shown

| Structure (SMILES) | Mean % P.E ± S.E (Culex quinquefasciatus; 0.0001 % Conc. in acetone) | Mean % P.E ± S.E (Culex quinquefasciatus; 0.001 % Conc. in acetone) | Mean % P.E ± S.E (Culex quinquefasciatus; 0.01 % Conc. in acetone) | Mean % P.E ± S.E (Culex quinquefasciatus; 0.1 % Conc. in acetone) | Mean % P.E ± S.E (Culex quinquefasciatus; 1 % Conc. in acetone) | Mean % P.E ± S.E (Culex quinquefasciatus; 10 % Conc. in acetone) | Mean % P.E ± S.E (Anopheles gambiae; 0.001 % Conc. in acetone) | Mean % P.E ± S.E (Anopheles gambiae; 0.01 % Conc. in acetone) | Mean % P.E ± S.E (Anopheles gambiae; 0.1 % Conc. in acetone) | Mean % P.E ± S.E (Anopheles gambiae; 1 % Conc. in acetone) | Mean % P.E ± S.E (Anopheles gambiae; 10 % Conc. in acetone) | repellency compared with DEET at 1% (C. impunctatus midges) | further results |
| --- | --- | --- | --- | --- | --- | --- | --- | --- | --- | --- | --- | --- | --- |
| CC(=O)CCC=C(C)C [6-methyl-5-hepten-2-one, 6-Methyl-5-hepten-2-one] | 8.0% | 12.7% | 21.8% | 30.1% | 49.7 ± 2.9% | 100.0 ± 0% | 1.57 ± 11.2% | 19.2 ± 5.5% | 34.07 ± 6.6% | 35.73 ± 8.7% | 74.75 ± 6.1% | more effective than DEET; also recorded: significantly greater than DEET at 1% | Mean % P.E ± S.E (Anopheles gambiae; 0.0001 % Conc. in acetone): 0.85 ± 3.9%; repellency (C. impunctatus midges; 1 min time, 0.001%): significantly repellent; repellency (C. impunctatus midges; 1 min time, 0.01%): not repellent; repellency (C. impunctatus midges; 1 min time, 1%): strongly repellent; repellency (C. impunctatus midges; over 5 min): repellent only at 1% |
| CCN(CC)C(=O)c1cccc(C)c1 [DEET, diethyltoluamide, reference compound] |  | 7.6 ± 1.8% | 12.0 ± 1.7% | 76.9 ± 5.4% | 98.2 ± 1.1% | 100% and 100 ± 0% | 6.23 ± 1.7% | 20% and 20.65 ± 6.4% | 83% and 83.78 ± 3.9% | 100% and 100 ± 0% | 100% and 100 ± 0% |  |  |
| CCCCCCCCCC=O [decanal] |  |  |  |  |  |  |  |  |  |  |  |  | ranking of treatments (repellency) (Culex quinquefasciatus): most effective treatment |
| CC(=O)CCC=C(C)CCC=C(C)C [geranylacetone, 6,10-dimethyl-5,9-undecadien-2-one] | 4.8% | 10% | 23.7% | 33.2 ± 4.5% | 84.1 ± 4.2% | 100 ± 0% | 7.25 ± 9.5% | 11.17 ± 12.9% | 30.13 ± 11% | 76.97 ± 5.9% | 100% | significantly greater than DEET at 1% | Mean % P.E ± S.E (Culex quinquefasciatus; 10 % Conc. in acetone, listed as Geranylacetone): 100%; Mean % P.E ± S.E (Anopheles gambiae; 10 % Conc. in acetone, listed as geranylacetonedecanal): 100 ± 0%; probing activity (feeding) [1, 2]: significantly reduced; relative attraction [1, 2]: caused a reduction in relative attraction; repellency (C. impunctatus midges; all concentrations tested (1%, 0.01% and 0.0001% in ethanol)): effective at all concentrations tested; % repellency compared with DEET (C. impunctatus midges; full 5 min testing period, single compound at 1%): higher % repellency than DEET; these differences were not significant |
| CCCCCCCCC=O [nonanal] |  |  |  |  |  |  |  |  |  |  |  |  | flight activity compared with the untreated hand ([1]; at only one dose): significantly greater flight activity than the untreated hand |
| CCCCCCCC=O [octanal] |  |  |  |  |  |  |  |  |  |  |  |  | repellent for Ae. aegypti (described previously) (Ae. aegypti): described previously as a repellent |
